≈ marks a conversion by molar mass, not a printed value. Like-named read-outs stand apart in the source and are kept apart here.
Tests used:
B. cereus ATCC10987 [1] = test: microbe, parasite or virus in culture; type: cell-based, Bacillus cereus
B. cereus ATCC14579 = test: microbe, parasite or virus in culture; type: cell-based, Bacillus cereus
E. faecalis LMG08222 = test: microbe, parasite or virus in culture; type: cell-based, Enterococcus faecalis; details: for MIC: Enterococcus faecalis, LMG08222, 20 h, read-out: Minimal Inhibition Concentration (MIC) E. faecalis LMG08222
E. faecalis LMG16216 = test: microbe, parasite or virus in culture; type: cell-based, Enterococcus faecalis; details: for MIC: Enterococcus faecalis, LMG16216, 20 h, read-out: Minimal Inhibition Concentration (MIC) E. faecalis LMG16216
E. faecalis V583 = test: microbe, parasite or virus in culture; type: cell-based, Enterococcus faecalis; details: for MIC: Enterococcus faecalis, V583, 20 h, read-out: Minimal Inhibition Concentration (MIC) E. faecalis V583
E. faecium LMG11423 = test: microbe, parasite or virus in culture; type: cell-based; details: for MIC: Enterococcus faecium, LMG11423, 20 h, read-out: Minimal Inhibition Concentration (MIC) E. faecium LMG11423
E. faecium LMG16003 = test: microbe, parasite or virus in culture; type: cell-based; details: for MIC: Enterococcus faecium, LMG16003, 20 h, read-out: Minimal Inhibition Concentration (MIC) E. faecium LMG16003
S.aureus LMG8224 = test: microbe, parasite or virus in culture; type: cell-based, Staphylococcus aureus
S.aureus LMG10147 = test: microbe, parasite or virus in culture; type: cell-based, Staphylococcus aureus
S.aureus LMG15975 = test: microbe, parasite or virus in culture; type: cell-based, Staphylococcus aureus
C. beijerinckii B504 = test: MIC test, anaerobes; type: cell-based; details: for Minimal Inhibition Concentration (MIC) C. beijerinckii B504: Table 1, 128 to 2 μM, RCM medium, anaerobic, 24 h
Protocol: (§1) The resveratrol derivatives were serially diluted in cMHB (BD Difco) in 96-well microplates. Plates were then inoculated with the indicator bacteria at a final concentration of 5 × 10^5 CFU/mL and incubated at 37 °C for 20 h. In the case of the anaerobic bacteria (Clostridium and Clostridioides), the test was performed following the recommendation of CLSI for anaerobes[77] but using RCM medium instead of cMHB. The cultures were cultivated inside an anaerobic chamber at 37 °C for 24 h. All the tests were performed in triplicate.

C. ihumii AP5 = test: MIC test, anaerobes; type: cell-based; details: 24 h; for MIC: read-out: Minimal Inhibition Concentration (MIC) C. ihumii AP5
Protocol: as §1

C. botulinum CECT551 = test: microbe, parasite or virus in culture; type: cell-based; details: for Minimal Inhibition Concentration (MIC) C. botulinum CECT551: Table 1, 128 to 2 μM, RCM medium, anaerobic, 24 h
C. difficile CECT531 = test: microbe, parasite or virus in culture; type: cell-based, Clostridioides difficile
C. perfringens CECT376 = test: microbe, parasite or virus in culture; type: cell-based
C. tetani CECT4629 = test: microbe, parasite or virus in culture; type: cell-based; details: Table 1; 128 to 2 μM, RCM medium, anaerobic, 24 h
B. cereus ATCC10987 [2] = test: Intracellular ATP level quantification (BacTiter-Glo); details: 32 μM of the compounds (100 μM for CCCP), 30, 60, and 120 min, 37 °C
[3] = test system: panel of aerobic and anaerobic Gram-positive bacteria; test: organism not typed; type: cell-based
E. coli LMG8224 = test: Outer membrane permeabilization test (MIC with or without L-11 peptide)
[4] = Table 1, 128 to 2 μM, RCM medium, anaerobic

Molecule | Minimal Inhibition Concentration (MIC) B. cereus ATCC10987 (B. cereus ATCC10987 [1]) [µM] | Minimal Inhibition Concentration (MIC) B. cereus ATCC14579 (B. cereus ATCC14579) [µM] | Minimal Inhibition Concentration (MIC) E. faecalis LMG08222 (E. faecalis LMG08222) [µM] | Minimal Inhibition Concentration (MIC) E. faecalis LMG16216 (E. faecalis LMG16216) [µM] | Minimal Inhibition Concentration (MIC) E. faecalis V583 (E. faecalis V583) [µM] | Minimal Inhibition Concentration (MIC) E. faecium LMG11423 (E. faecium LMG11423) [µM] | Minimal Inhibition Concentration (MIC) E. faecium LMG16003 (E. faecium LMG16003) [µM] | Minimal Inhibition Concentration (MIC) S.aureus LMG8224 (S.aureus LMG8224) [µM] | Minimal Inhibition Concentration (MIC) S.aureus LMG10147 (S.aureus LMG10147) [µM] | Minimal Inhibition Concentration (MIC) S.aureus LMG15975 (S.aureus LMG15975) [µM] | Minimal Inhibition Concentration (MIC) C. beijerinckii B504 (C. beijerinckii B504) [µM] | Minimal Inhibition Concentration (MIC) C. botulinum CECT551 (C. botulinum CECT551) [µM] | Minimal Inhibition Concentration (MIC) C. difficile CECT531 (C. difficile CECT531) [µM] | Minimal Inhibition Concentration (MIC) C. perfringens CECT376 (C. perfringens CECT376) [µM] | Minimal Inhibition Concentration (MIC) C. tetani CECT4629 (C. tetani CECT4629) [µM] | IC50 (MRC5 cells) [µM] | MIC (E. faecalis LMG08222) [µM] | MIC (E. faecalis LMG16216) [µM] | MIC (E. faecalis V583) [µM] | MIC (E. faecium LMG11423) [µM] | also measured
3-butyl resveratrol [compound 9] | 32 ± 0 | 32 ± 0 | 128 ± 0 | 128 ± 0 | 128 ± 0 | 64 ± 0 | 128 ± 0 | 64 ± 0 | 64 ± 0 | 32 ± 0 | 26.6 ± 5.3 | 32 ± 0 | 64 ± 0 | 64 ± 0 | 16 ± 0 | – | – | – | – | – | Minimal Inhibition Concentration (MIC) C. ihumii AP5 (C. ihumii AP5; [4]): 64 ± 0 µM
3-tert-Butyldimethylsilyl resveratrol [compound 16] | 16 ± 0 | 16 ± 0 | 8 ± 0 | 16 ± 0 | 16 ± 0 | 16 ± 0 | 16 ± 0 | 16 ± 0 | 16 ± 0 | 16 ± 0 | 26.6 ± 5.3 | 16 | 26.6 ± 5.3 | 32 | 6.6 ± 1.3 | 2.7 ± 0.3 | – | – | – | – | MIC (C. ihumii AP5; [4]): 32 µM
3-triethylsilyl resveratrol [compound 20] | – | – | – | – | – | – | – | – | – | – | – | – | – | – | – | 21.3 ± 5.9 | – | – | – | – | –
N#CC(C#N)=NNc1cccc(Cl)c1 [CCCP, carbonyl cyanide m-chlorophenyl hydrazone] | – | – | – | – | – | – | – | – | – | – | – | – | – | – | – | – | – | – | – | – | intracellular ATP levels (B. cereus ATCC10987 [2]): a time reduction of these levels was observed
CCCCCCCCCCCC(=O)OC[C@H]1O[C@@H](Oc2cc(O)cc(/C=C/c3ccc(O)cc3)c2)[C@H](O)[C@@H](O)[C@@H]1O [compound 4] | – | – | – | – | – | – | – | – | – | – | – | – | – | – | – | – | 32 (≈ 18.3 µg/mL) | 64 (≈ 36.7 µg/mL) | 53.3 ± 10.6 (≈ 30.5 µg/mL) | 53.3 ± 10.6 (≈ 30.5 µg/mL) | MIC (B. cereus ATCC10987 [1]; Bacillus cereus, ATCC10987, 20 h, read-out: Minimal Inhibition Concentration (MIC) B. cereus ATCC10987): 8 µM (≈ 4.58 µg/mL); MIC (B. cereus ATCC14579; Bacillus cereus, ATCC14579, 20 h, read-out: Minimal Inhibition Concentration (MIC) B. cereus ATCC14579): 8 µM (≈ 4.58 µg/mL); MIC (E. faecium LMG16003): 53.3 ± 10.6 µM (≈ 30.5 µg/mL); MIC (S.aureus LMG8224; Staphylococcus aureus, LMG8224, 20 h, read-out: Minimal Inhibition Concentration (MIC) S.aureus LMG8224): 16 µM (≈ 9.16 µg/mL); MIC (S.aureus LMG10147; Staphylococcus aureus, LMG10147, 20 h, read-out: Minimal Inhibition Concentration (MIC) S.aureus LMG10147): 16 µM (≈ 9.16 µg/mL); MIC (S.aureus LMG15975; Staphylococcus aureus, LMG15975, 20 h, read-out: Minimal Inhibition Concentration (MIC) S.aureus LMG15975): 16 µM (≈ 9.16 µg/mL); MIC (C. beijerinckii B504; Clostridium beijerinckii, B504, 24 h, read-out: Minimal Inhibition Concentration (MIC) C. beijerinckii B504): 16 µM (≈ 9.16 µg/mL); MIC (C. ihumii AP5): 32 µM (≈ 18.3 µg/mL); MIC (C. botulinum CECT551; Clostridium botulinum, CECT551, 24 h, read-out: Minimal Inhibition Concentration (MIC) C. botulinum CECT551): 8 µM (≈ 4.58 µg/mL); MIC (C. difficile CECT531; Clostridioides difficile, CECT531, 24 h, read-out: Minimal Inhibition Concentration (MIC) C. difficile CECT531): 128 µM (≈ 73.3 µg/mL); MIC (C. perfringens CECT376; Clostridium perfringens, CECT376, 24 h, read-out: Minimal Inhibition Concentration (MIC) C. perfringens CECT376): 32 µM (≈ 18.3 µg/mL); MIC [3]: 8 to 16 µM (≈ 4.58 to 9.16 µg/mL); MIC (E. coli LMG8224; Escherichia coli, LMG8224, read-out: MIC (μM) L-11 + 0 μM): > 128 µM; MIC (μM) L-11 + 4 μM (E. coli LMG8224; presence of 4 μM L-11 outer-membrane-perturbing peptide): 6.6 ± 1.3 µM
CCCCCCCCCCCCCCCCCC(=O)OC[C@H]1O[C@@H](Oc2cc(O)cc(/C=C/c3ccc(O)cc3)c2)[C@H](O)[C@@H](O)[C@@H]1O [compound 6, piceid stearate] | – | – | – | – | – | – | – | – | – | – | – | – | – | – | – | – | 16 (≈ 10.5 µg/mL) | 128 (≈ 84.1 µg/mL) | 128 (≈ 84.1 µg/mL) | 1 (≈ 0.657 µg/mL) | MIC (E. faecium LMG16003): 2.6 ± 0.6 µM (≈ 1.71 µg/mL)

From publication PMC9237828, “Chemically Tuning Resveratrol for the Effective Killing of Gram-Positive Pathogens” (Journal of Natural Products, 2022)
